Results as given in patent US20130039852A1, “METHODS OF TARGETING CELLS FOR DIAGNOSIS AND THERAPY” (NORTHEASTERN UNIVERSITY, priority 2008, published 2013).
Values after ≈ are worked out from the molar mass of the structure shown.

How the values were obtained:
anti-Bombesin antibody = experiment: ELISA for bispecificity using anti-Bombesin capture antibody and DTPA-HRP; assay type: binding; details: 1 μg/ml, captured by anti-Bombesin antibody
Description: Intact 6C31H3 anti-DTPA antibody was modified with 100× molar excess iminothiolane. Bombesin was modified with 24× molar excess N-hydroxy-succinimide ester of bromoacetic acid (as described in Varvarigou et al., Can. Biother. Radiopharm. 19:219-229 (2004); and Bernatowicz et al., Anal. Biochem. 155:95-102 (1986)). […] The antibody activity and Bombesin concentrations were assessed by ELISA using either DTPA-BSA or anti-Bombesin antibody and compared to standard curves. Specifically, the Bombesin concentration of serial dilutions of Bom-BiSpCx starting at 1 μg/ml was determined by ELISA using Bombesin (1 μg/ml) and 6C31H3 antibody (1 μg/ml) as controls. Bombesin of the Bom-BiSpCx (1 μg/ml) was captured by an anti-Bombesin antibody, resulting in a positive reaction with DTPA-HRP (which is specific for the […] antibody of the Bom-BiSpCx).

[1] = tested on: BT-20 human mammary tumor cells; experiment: In vitro assay for tumorotoxicity in BT-20 human mammary tumor cells; assay type: cell-based; details: BT-20 cells, 10 μg/ml, 3 hrs; compared with Dox-DPG and Dox-DPG-BiSpAb
Description: BT-20 human mammary tumor cells were grown in 10% Fetal Clone DEME. When the cells reached about 80% confluence, the cells were harvested by trypsin digestion and replated in […] culture plates at 400,000 cells per well. After 24 hrs, the culture media was removed and in one set of wells was replaced with media containing 10 μg/ml of 2C5-6C31H3 BiSpAb (prepared as described in Example 1). In two other sets, the media was replaced with media lacking 2C5-6C31H3 BiSpAb. Each set was prepared in triplicate. After 24 hrs of incubation, the medium was removed and washed 3× with medium lacking antibody. Medium containing 10 μg/ml of free Dox was then added to a medium-only set of wells, and media containing 10 μg/ml of Dox-DPG was added to one set with and one set without 2C5-6C31H3 BiSpAb. The cultures were incubated for either 3 hrs, 12 hrs, or 24 hrs, at which times the cells in the media were collected and viability was determined by counting cells with Tryptan Blue exclusion criteria in a hemocytometer.

PC-3 cancer cells = experiment: In vitro therapeutic efficacy in PC-3 cell cultures; assay type: cell-based, human; details: 10 μg Bom-BiSpCx 24 hr then 10 μg/ml Dox-DPG, or 10 μg/ml free Dox; Trypan blue
Description: PC-3 cancer cells were grown in 10% fetal clone-DMEM until they reached about 80% confluence. The cells were then harvested by trypsin digestion and re-plated in 6 well culture plates at 40,000 cells per well. After attaining 70% confluency, the medium was replaced with or without 10 μg of Bom-BiSpCx (prepared as described in Example 3) in triplicates to quadruplicates. After 24 hr of incubation at 37° C. in 5% CO2, the media was changed to media containing 10 μg/ml of free Dox or Dox-DPG (prepared as described in Example 2). The cells were further incubated at 37° C. for 0-3 hr, 3-12 hr, or 12-24 hr, at which time the cells in each well were collected and the number of live and dead cells determined by Trypan blue exclusion test in a Hemocytometer. Negative control cells were treated with monospecific 2C5 antibody, […] antibody, Bombesin, or culture media alone. Positive control cells were treated with 10 μg/ml of free Dox. Each assay was repeated at least 3 times in triplicate or quadruplicate.

[2] = tested on: H9C2 embryonic rat cardiocytes; experiment: IC50 in H9C2 embryonic cardiocytes, Trypan Blue exclusion; assay type: cell-based; details: 24 hr
Description: H9C2 embryonic rat cardiocytes cultured in 10% Fetal Clone DMEM (F-DMEM) at 37° C. in 25 ml sterile culture flasks until 90% confluent in triplicate were dissociated by Trypsin digestion. The cells were washed in F-DMEM. Aliquots of 40,000 H9C2 cells in 1 ml F-DMEM were delivered to each well of a 6 well culture plate. After incubation for 24 hr, the culture medium was removed and fresh medium containing 2.5 μg/ml, 5 μg/ml, 10 μg/ml, 15 μg/ml, and 30 μg/ml of Dox-DPG or free Dox were added and incubated at 37° C. for 24 hr. Cell death was assessed by Trypan Blue exclusion test.

O=C(O)CN(CCN(CC(=O)O)CC(=O)O)CCN(CC(=O)O)CC(=O)O [DTPA, diethylene triaminepentaacetic acid]
Reaction with DTPA-HRP, O.D. 490 nm (anti-Bombesin antibody): 0.0007±0.0025

COc1cccc2c1C(=O)c1c(O)c3c(c(O)c1C2=O)C[C@@](O)(C(=O)CO)C[C@@H]3O[C@H]1C[C@H](N)[C@H](O)[C@H](C)O1 [doxorubicin]
Tumor cell killing, early stage of incubation [1]: more effective in killing tumor cells | Death of PC-3 cancer cells (PC-3 cancer cells): 68.6% | IC50 (cardiotoxicity) [2]: 1.02 µg/mL (≈ 1.88 µM)
